In PMC3674988, “Scrutinizing MHC-I Binding Peptides and Their Limits of Variation” (PLoS Computational Biology, 2013):

These substances were tested on H-2K^b:IgG fusion protein (assay: Thermal denaturation assay, direct binding of SIINFEKL fragments). Conditions: normalized fluorescence melting curves, first derivative; vs NoLigand; 100 µM peptide.
Design: species or system mouse
Method: Thermal denaturation studies were conducted using a StepOnePlus real-time PCR system (Applied Biosystems) with MicroAmp optical 96-well plates (Applied Biosystems cat. no. N8010560). Wells were loaded with 10 µl of H-2K^b:IgG fusion protein solution (protein conc. = 0.5 mg×ml^−1; BD Biosciences cat. no. 550750) – respectively 10 µl of PBS buffer (pH 7.36) for ligand-only controls – 2 µl of peptide or peptide fragments, 2 µl of 10× SYPRO Orange (SigmaAldrich cat. no. S5692) and 6 µl (8 µl for negative controls) to yield a total volume of 20 µl per well. Final concentrations calculated to 1 µM for H-2K^b:IgG fusion protein, 100 µM for the peptides/peptide fragments and 1× SYPRO Orange. Fluorescence intensity was measured using the Applied Biosystems ROX preset with respective excitation/emission maxima at 587/607 nm, while heating the wells continuously from 25°C to 99°C with a ramp rate of 1% (temperature increase of 1.5°C per minute). Results were recorded by StepOne 2.2.2 software and analyzed by identifying the local minimum of the derivative of the melting curve for the segment relevant for denaturation of the peptide-binding superdomain (α1,2) of the MHC-I heavy chain.

| Substance | Melting point shift of peptide-MHC-I complex (melting curves) |
| --- | --- |
| IINFEKL [synthesized SIINFEKL fragment] | significant melting point shift |
| INFE [synthesized SIINFEKL fragment] | no melting point shift |
| INFEKL [synthesized SIINFEKL fragment] | significant melting point shift |
| SIINF [synthesized SIINFEKL fragment] | significant melting point shift |
| SIINFE [synthesized SIINFEKL fragment] | significant melting point shift |
| SIINFEK [synthesized SIINFEKL fragment] | significant melting point shift |
